From US9115126B2, “1H-[1,2,3]triazolo[4,5-c]pyridine-4-carbonitrile derivatives” (Merck Sharp & Dohme B.V., priority 2010, dated 2015)
Counter-ions that a name gives are not always drawn. Like-named read-outs stand apart in the source and are kept apart here.

Biological target: recombinant human Cathepsin S (Homo sapiens (Human), UniProt P25774)
Assay: Cathepsin S assay procedure (fluorogenic substrate Z-Val-Val-Arg-AMC)
Format: biochemical
Protocol: 25 μl of a 2 mg/l solution of activated recombinant human cathepsin S, in assay buffer, is then added to the well, yielding a final inhibitor concentration of 10 μM.
Enzyme activity is determined by measuring the fluorescence of the liberated aminomethylcoumarin at […] using 390 nm excitation, at 20 minutes. Percentage enzyme activity is calculated by comparison of this activity to that of a solution containing no inhibitor.

[1] = read-out: pIC50 (negative logarithm of the IC50 concentration) for inhibition of human cathepsin S (converted)
[2] = pH5.5, fluorescence at 20 minutes, read-out: Cat S activity IC50

Chain of recombinant human Cathepsin S (P25774 115-331): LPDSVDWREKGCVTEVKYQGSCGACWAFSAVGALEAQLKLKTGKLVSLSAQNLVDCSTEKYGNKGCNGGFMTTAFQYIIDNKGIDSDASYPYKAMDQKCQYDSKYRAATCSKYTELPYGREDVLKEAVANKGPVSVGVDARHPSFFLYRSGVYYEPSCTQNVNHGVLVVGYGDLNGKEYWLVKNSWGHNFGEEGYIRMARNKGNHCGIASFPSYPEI

Row | Compound | IC50 [1] [nM] | IC50 [2] [nM]
1 | Cc1ccc(N2CC[C@@H](CCOc3ccc(-c4cc5c(nnn5C)c(C#N)n4)cc3C(F)(F)F)C2)nc1 [Example 9a, (S)-1-methyl-6-(4-(2-(1-(5-methylpyridin-2-yl)pyrrolidin-3-yl)ethoxy)-3-(trifluoromethyl)phenyl)-1H-[1,2,3]triazolo[4,5-c]pyridine-4-carbonitrile hydrochloride] | < 10 | –
2 | Cc1cccc(N2CCC(CCOc3ccc(-c4cc5c(nnn5C)c(C#N)n4)cc3C(F)(F)F)CC2)n1 [Example 4b, 1-methyl-6-(4-(2-(1-(6-methylpyridin-2-yl)piperidin-4-yl)ethoxy)-3-(trifluoromethyl)phenyl)-1H-[1,2,3]triazolo[4,5-c]pyridine-4-carbonitrile hydrochloride] | < 10 | 9
3 | Cn1nnc2c(C#N)nc(-c3ccc(OCCN4CCNC(C(F)(F)F)C4)c(C(F)(F)F)c3)cc21 (stereo not shown) [Example 37q, 1-methyl-6-(3-(trifluoromethyl)-4-(2-(3-(trifluoromethyl)piperazin-1-yl)ethoxy)phenyl)-1H-[1,2,3]triazolo[4,5-c]pyridine-4-carbonitrile] | < 10 | –
4 | Cn1nnc2c(C#N)nc(-c3ccc(OCc4cccc[n+]4[O-])c(C(F)(F)F)c3)cc21 [Example 21, 1-methyl-6-(4-(1-N-oxy-pyridin-2-ylmethoxy)-3-(trifluoromethyl)phenyl)-1H-[1,2,3]triazolo[4,5-c]pyridine-4-carbonitrile] | < 10 | –
5 | CCN(CC)CCCOc1ccc(-c2cc3c(nnn3C)c(C#N)n2)cc1C(F)(F)F [Example 36q, 6-(4-(3-(diethylamino)propoxy)-3-(trifluoromethyl)phenyl)-1-methyl-1H-[1,2,3]triazolo[4,5-c]pyridine-4-carbonitrile] | < 10 | –
6 | Cn1nnc2c(C#N)nc(-c3ccc(OCCN4CCS(=O)(=O)CC4)c(C(F)(F)F)c3)cc21 [Example 37p, 1-methyl-6-(4-(2-(4-S,S-dioxothiomorpholin-1-yl)ethoxy)-3-(trifluoromethyl)phenyl)-1H-[1,2,3]triazolo[4,5-c]pyridine-4-carbonitrile] | < 10 | –
7 | Cn1nnc2c(C#N)nc(-c3ccc(OCc4ccccn4)c(C(F)(F)F)c3)cc21 [Example 20, 1-methyl-6-(4-(pyridin-2-ylmethoxy)-3-(trifluoromethyl)phenyl)-1H-[1,2,3]triazolo[4,5-c]pyridine-4-carbonitrile] | < 10 | –
8 | CN(C)C(=O)CN1CCC(CCOc2ncc(-c3cc4c(nnn4C)c(C#N)n3)cc2C(F)(F)F)CC1 [Example 27a, 6-(6-(2-(1-(2-Dimethylamino-2-oxo-ethyl)piperidin-4-yl)ethoxy)-5-(trifluoromethyl)pyridin-3-yl)-1-methyl-1H-[1,2,3]triazolo[4,5-c]pyridine-4-carbonitrile hydrochloride] | < 10 | –
9 | Cc1ccc(N2CCC(CCOc3ccc(-c4cc5c(nnn5C)c(C#N)n4)cc3C(F)(F)F)CC2)nc1 [Example 8, 1-methyl-6-(4-(2-(1-(5-methylpyridin-2-yl)piperidin-4-yl)ethoxy)-3-(trifluoromethyl)phenyl)-1H-[1,2,3]triazolo[4,5-c]pyridine-4-carbonitrile hydrochloride] | < 10 | –
10 | CN(C)CCCOc1ccc(-c2cc3c(ncn3C)c(C#N)n2)cc1C(F)(F)F [WO 2009/010491 - Example 2a, reference compound] | – | 32
11 | Cn1nnc2c(C#N)nc(-c3ccc(OCCCN4CCN(CCO)CC4)c(C(F)(F)F)c3)cc21 [Example 36t, 6-(4-(3-(4-(2-hydroxyethyl)piperazin-1-yl)propoxy)-3-(trifluoromethyl)phenyl)-1-methyl-1H-[1,2,3]triazolo[4,5-c]pyridine-4-carbonitrile dihydrochloride] | < 10 | –
12 | Cn1nnc2c(C#N)nc(-c3ccc(OCCC4CCN(Cc5ncon5)CC4)c(C(F)(F)F)c3)cc21 [Example 3c, 6-(4-(2-(1-((1,2,4-oxadiazol-3-yl)methyl)piperidin-4-yl)ethoxy)-3-(trifluoromethyl)phenyl)-1-methyl-1H-[1,2,3]triazolo[4,5-c]pyridine-4-carbonitrile] | < 10 | –
